Where “and” joins values, the source holds several entries; their conditions need not be identical. Equal values may be shown once. Strand notation (5' to 3'): a small letter for the sugar, then the base; units joined by * are phosphorothioate-linked, units joined directly phosphodiester-linked; [ ] holds rarer units or linkages, { } end groups; capitals alone tell only the bases. e = 2'-O-(2-methoxyethyl) (MOE); k = constrained ethyl (cEt); [5mC] = 5-methylcytosine; d = 2'-deoxy (DNA)
How the values were obtained:
miR-21 = miR-21 luciferase sensor assay in Hela cells; format: cell-based; conditions: for luciferase value normalized to beta-galactosidase activity / inhibition of miR-21 in the luciferase assay (in words): Hela cells
Experimental: The compounds were assessed for miR-21 inhibitory activity in a luciferase assay. A microRNA luciferase sensor construct was engineered using pGL3-MCS2 (Promega). The construct was introduced into Hela cells to test the ability of anti-miR compounds to inhibit activity of miR-21. In this assay, miR-21 present in the Hela cells binds to its cognate site(s) in the luciferase sensor construct, and suppresses luciferase expression. When the appropriate anti-miR is introduced into the cells, it binds to miR-21 and relieves suppression of luciferase expression. Thus, in this assay anti-miRs that are effective inhibitors of miR-21 expression will cause an increase in luciferase expression.
Day 1: Hela cells (ATCC), stably transfected with a luciferase construct engineered to contain a sequence complementary of miR-21, were seeded in T-170 flasks (BD Falcon) at 3.5*10^6 cells/flask. Hela cells were grown in Dulbecco's Modified Eagle Medium with High Glucose (Invitrogen).
Day 2: Each flask of Hela cells was transfected with 0.5 ug of a phRL sensor plasmid (Promega) expressing Renilla to be used in normalization. Hela cells were transfected using 20 ul Lipofectamine 2000/flask (Invitrogen). After 4 hours of transfection, cells were washed with PBS and trypsinized. Hela cells were plated at 40 k/well in 24 well plates (BD Falcon) and left overnight.
Day 3: Hela cells were transfected with anti-miRs using Lipofectin (Invitrogen) at 2.5 ul Lipofectin/100 nM ASO/ml Opti-MEM I Reduced Serum Medium (Invitrogen) for 4 hours. After ASO transfection, Hela cells were refed with Dulbecco's Modified Eagle Medium with High Glucose (Invitrogen).
Day 4: Hela cells are passively lysed and luciferase activity measured using the Dual-Luciferase Reporter Assay System (Promega).
The luciferase assay was performed to test the ability of anti-miRs with the nucleoside patterns described herein to inhibit the activity of miR-21. Results were compared to a ‘mock’ treatment, in which cells received no anti-miR treatment. The experiment was repeated and results of two experimental replicates are shown in the following Table B, as the luciferase value normalized to beta-galactosidase activity.
The luciferase assay was performed as described herein to test the ability of anti-miRs in Table F to inhibit the activity of miR-21. Results were compared to a ‘mock’ treatment, in which cells received no anti-miR treatment. The experiment was repeated and results of two experimental replicates are shown in the following Table D, as fold change in luciferase value relative to the mock treatment.

[1] = test system: collagen 1A1 and collagen 3A1 expression in kidney, unilateral ureteral obstruction (UUO) model; test: UUO model of kidney fibrosis: kidney collagen 1A1 and collagen 3A1 expression by real-time PCR; format: in vivo, mice; conditions: for Collagen 1A1 (Normalized Expression), individual animal / Collagen 3A1 (Normalized Expression), individual animal: UUO, 20 mg/kg at days -3, -1, +5 (prophylactic), kidney at day 11, real-time PCR normalized to GAPDH then sham, 20 mg/kg; for reduction in collagen expression (in words): meta-analysis of repeated UUO studies, 20 mg/kg at days -3, -1, +5
Experimental: Unilateral ureteral obstruction (UUO) is a well-established experimental model of renal injury leading to interstitial fibrosis, and thus is used as an experimental model that is reflective of human kidney disease. UUO is induced by surgically ligating a single ureter. As fibrosis is characterized by an increase in collagen, the presence and extent of kidney fibrosis may be determined by measuring collagen content. Both collagen 1A1 (Col 1A1) and collagen 3A1 (Col 3A1) are measured to assess collagen content. Kidney fibrosis may be visualized by staining tissue samples with picro-sirius red to detect increases in collagen content. Kidney fibrosis may also be observed by measuring the amount of hydroxyproline, which is a major component of collagen, in a sample.
The cEt-containing anti-miR-21 compounds found to be active in the luciferase assay were tested in the UUO model of kidney fibrosis. 25919 comprising 2′-MOE and 2′-fluoro modifications is known to inhibit miR-21 activity in vivo and was included as a positive control. Groups of 8 animals each were treated as follows: UUO only, UUO with PBS, or UUO with anti-miR-21 compound. Relative to the day of the UUO procedure, PBS or anti-miR-21 compound was administered at days −3, −1, and +5. Anti-miR-21 compounds were administered at a dose of 20 mg/kg. As the anti-miR compounds were administered prior to the UUO procedure, this dosing regimen is considered a prophylactic treatment. At day 11, animals were sacrificed and kidney was isolated for measurement of collagen expression. Collagen expression was measured by real-time PCR and normalized first to GAPDH and then to the sham control animals. […]

[2] = Ex vivo liver homogenate stability assay (HPLC-TOF MS)
[3] = 4 nM oligonucleotide, mock transfection 50
[4] = 20 nM oligonucleotide, mock transfection 47
[5] = .16 nM oligonucleotide, mock transfection 45
[6] = .8 nM oligonucleotide, mock transfection 33
[7] = 100 nM oligonucleotide, mock transfection 40
[8] = 5 μM in liver homogenate (50 mg tissue per ml), 24 hours at 37° C.

Row | Molecule | luciferase value normalized to beta-galactosidase activity (miR-21; [3]) | luciferase value normalized to beta-galactosidase activity (miR-21; [4]) | luciferase value normalized to beta-galactosidase activity (miR-21; [5]) | luciferase value normalized to beta-galactosidase activity (miR-21; [6]) | inhibition of miR-21 in the luciferase assay (in words) (miR-21) | Collagen 1A1 (Normalized Expression), individual animal [1] | Collagen 3A1 (Normalized Expression), individual animal [1] | other results
1 | AECSAETECSAEGETECSTEGEAEUSAEAEGECSTEAE (ACATCAGTCTGATAAGCTA; S-cEt/2'-MOE, phosphorothioate, chemistry not fully specified) [Compound 25072] | 76 | 86 | 40 | 49 | demonstrated inhibition of miR-21 in a dose-dependent manner | 96.2 and 85.7 and 127.4 and 100.0 and 159.2 and 120.5 and 108.0 | 69.4 and 54.5 and 58.8 and 69.2 and 93.8 and 65.8 and 46.9 | reduction in collagen expression (in words) [1]: did not consistently demonstrate a reduction in collagen expression
2 | TE^MeCEAEAECSAETECSAEGETECSTEGEAEUSAEAEGECSTEAE (TCAACATCAGTCTGATAAGCTA; listed as DNA, chemistry not fully specified) [Compound 25068] | 64 | 86 | 45 | 54 | demonstrated inhibition of miR-21 in a dose-dependent manner | 84.7 and 75.1 and 85.5 and 89.1 and 90.4 and 125.8 and 124.4 | 64.8 and 56.2 and 47.4 and 76.2 and 57.0 and 63.0 and 59.6 | luciferase value normalized to beta-galactosidase activity (miR-21; [7]): 97
3 | CCCCC1=NC2(CCCC2)C(=O)N1Cc1ccc(-c2ccccc2-c2nnn[nH]2)cc1 [irbesartan, reference compound] |  |  |  |  |  |  |  | reduction in Col3a1 expression (in words) ([1]; UUO comparison with irbesartan, 25070 s.c. 20 mg/kg days -5, -2, +3, irbesartan perorally daily days 0-7, day 10): statistically significant reductions; reduction in Col1A1 expression relative to saline-treated animals (in words) ([1]; UUO comparison with irbesartan, 25070 s.c. 20 mg/kg days -5, -2, +3, irbesartan perorally daily days 0-7, day 10, p<0.05 one-way ANOVA): did not yield a statistically significant reduction
4 | TE^MeCAACSATCSAGTCSTGAUSAAGCSTAE (TCAACATCAGTCTGATAAGCTA; listed as DNA, chemistry not fully specified) [Compound 25082] |  |  | 70 | 89 | demonstrated inhibition of miR-21 in a dose-dependent manner | 122.2 and 188.3 and 102.5 and 67.6 and 40.6 and 44.1 and 73.8 and 94.7 | 62.9 and 78.9 and 82.2 and 43.8 and 32.6 and 34.3 and 75.8 and 62.5 | reduction in collagen expression (in words) [1]: did not consistently demonstrate a reduction in collagen expression
5 | AECSATCSAGTCSTGAUSAAGCSTAS (ACATCAGTCTGATAAGCTA; 2'-MOE and cEt modifications) [Compound 25923] |  |  |  |  |  |  |  | compound lacking the 3'-terminal nucleoside [2, 8]: about 18%; compound present as the full-length compound [2, 8]: About 68%; ex vivo (liver) N %↓ ([2]; 5 μM oligonucleotide in liver homogenate (50 mg tissue per ml), 24 hours, 37° C., decrease of full-length compound): 17%; ex vivo (liver) % N-1 ([2]; 5 μM oligonucleotide in liver homogenate, 24 hours, 37° C., compound lacking one terminal nucleoside): 13%; ex vivo (liver) % Endo ([2]; 5 μM oligonucleotide in liver homogenate, 24 hours, 37° C., endonuclease products): 2-3%
6 | Te^MeCASA^MeCAST^MeCAGST^MeCTGASTAAGS^MeCTAe (antisense TCAACATCAGTCTGATAAGCTA; all C 5-methyl, all phosphorothioate, sugars by position not given here; further chemistry not fully specified) [Compound 25067] | 43 | 41 | 38 | 23 |  |  |  | luciferase value normalized to beta-galactosidase activity (miR-21; [7]): 30; luciferase value normalized to beta-galactosidase activity (miR-21; 500 nM oligonucleotide, mock transfection 39): 42
7 | AE^MeCSAT^MeCSAGT^MeCSTGATSAAG^MeCSTAS (antisense eA*k[5mC]*dA*dT*k[5mC]*dA*dG*dT*k[5mC]*dT*dG*dA*kT*dA*dA*dG*k[5mC]*dT*kA) [Compound 25924, 25070 variant: 3'-terminal cEt nucleoside and each cytosine is a 5-methyl cytosine] |  |  |  |  | demonstrated inhibition of miR-21 in a dose-dependent manner |  |  | fold change in luciferase value relative to the mock treatment (miR-21; concentration of anti-miR compound 0.2 (unit not given)): 1.10; fold change in luciferase value relative to the mock treatment (miR-21; concentration of anti-miR compound 0.6 (unit not given)): 1.25; fold change in luciferase value relative to the mock treatment (miR-21; concentration of anti-miR compound 1.9 (unit not given)): 1.37; fold change in luciferase value relative to the mock treatment (miR-21; concentration of anti-miR compound 5.6 (unit not given)): 7.80; fold change in luciferase value relative to the mock treatment (miR-21; concentration of anti-miR compound 16.7 (unit not given)): 13.01; fold change in luciferase value relative to the mock treatment (miR-21; concentration of anti-miR compound 50.0 (unit not given)): 8.99
